From patent US3950517A, “Insulin derivatives” (National Research Development Corporation, priority 1970, dated 1976)

Legend:
[1] = system: specific insulin antibody; experiment: Radioimmunoassay of immunoreactivity (reactivity towards specific insulin antibody); format: binding; conditions: percentage basis relative to insulin; for Immunoreactivity: Table 2; for Radioimmunoassay Immunoreactivity: Table 1
From the text: (§1) In most cases the new derivatives have an initial bloor sugar lowering effect which is virtually indistinguishable from insulin itself. In contrast the derivatives have less than about 50% of the immunoreactivity of the parent insulin as determined by radioimmunoassay. In many cases the reduction in immunoreactivity (reactivity towards specific insulin antibody) is as low as 30% or even 10% of that of the parent hormone. The figures are expressed on a percentage basis relative to insulin.

[2] = system: blood sugar; experiment: Blood sugar lowering activity by intravenous injection into laboratory animals; format: in vivo; conditions: Table 2; percentage basis relative to insulin
From the text: as §1

[3] = system: Mouse; experiment: Mouse convulsion assay (British Pharmacopoeia, 1968) against neutral insulin standard; format: in vivo; conditions: Table 1; percentage basis relative to insulin
From the text: as §1
The insulin derivatives were separated from trace amounts of urea and salt by elution from a Sephadex G.10 column (2.5 × 60 cm.) equilibrated with 5% aqueous acid and the protein, after lyophilisation, was dried over phosphorous pentoxide at room temperature for 2 days. The derivatives were assayed against a neutral insulin solution (Nuso insulin batch A 354) as standard by the Mouse Convulsion method (British Pharmacopoeia, 1968). All injections were of solutions in acetate buffer, pH 8.0.

| Substance | Immunoreactivity [1] [%] | Blood sugar lowering [2] [%] | Radioimmunoassay Immunoreactivity [1] [%] | Mouse convulsion assay Mean potency [3] [%] |
| --- | --- | --- | --- | --- |
| (Carbamyl-Gly)A1 -(Carbamyl-Phe)B1 -(Carbamyl-Lys)B29 -insulin | 9 | 100 | – | – |
| (Carbamyl-Gly)A1 -(Carbamyl-Phe)B1 -insulin | 10 | 100 | – | – |
| (Carbamyl-Phe)B1 -insulin | 23 | 100 | – | – |
| A1, B1, B29 -triacetyl-insulin | – | – | 10 | 96 |
| Crystalline bovine insulin: Parent bovine insulin, reference set to 100 [reference compound] | 100 | 100 | 100 | 100 |
| Gly^A1 -monosubstituted insulin (a) carbamyl: Insulin carbamylated at A1 glycine | – | 100 | – | – |
| Gly^A1 -monosubstituted insulin (b) methylthiocarbamyl: Insulin methylthiocarbamylated at A1 glycine | 92 | 100 | – | – |
| Gly^A1 -monosubstituted insulins (a) Acetyl (bovine): Bovine insulin acetylated at the A1 glycine amino group | – | – | 71 | 105 |
| Gly^A1 -monosubstituted insulins (b) Acetoacetyl (bovine): Bovine insulin acetoacetylated at the A1 glycine amino group | – | – | 87 | 88 |
| Gly^A1 -monosubstituted insulins (c) Thiazolidine (bovine): Bovine insulin acylated at A1 glycine with 2,2-dimethyl-3-formyl-L-thiazolidine-4-carboxylic acid | – | – | 81 | 57 |
| Gly^A1 Lys^B29 -diacetyl insulin | – | – | 67 | 93 |
| Lys^B29 -monosubstituted insulins (b) Thiazolidine (bovine): Bovine insulin acylated at B29 lysine with 2,2-dimethyl-3-formyl-L-thiazolidine-4-carboxylic acid | – | – | 84 | 101 |
| Lys^B29 acetyl insulin | – | – | 83 | 114 |
| Phe^B1 -Gly^A1 -disubstituted insulins (b) methylthiocarbamyl: Insulin methylthiocarbamylated at A1 and B1 | 20 | 100 | – | – |
| Phe^B1 -monosubstituted insulins (b) Acetoacetyl (bovine): Bovine insulin acetoacetylated (diketen) at the B1 phenylalanine amino group | – | – | 8.6 | 109 |
| Phe^B1 -monosubstituted insulins (c) Thiazolidine (bovine): Bovine insulin acylated at B1 phenylalanine with 2,2-dimethyl-3-formyl-L-thiazolidine-4-carboxylic acid | – | – | 27 | 103 |
| Phe^B1 Gly^A1 -diacetyl insulin | – | – | 25 | 90 |
| Phe^B1 acetyl insulin | – | – | 30 | 100 |
| Phe^B1, Gly^A1 -disubstituted insulins (b) Acetoacetyl (bovine): Bovine insulin acetoacetylated at B1 and A1 | – | – | 14 | 76 |
| Phe^B1, Gly^A1, Lys^B29 -trisubstituted insulins (b) Acetoacetyl (bovine): Bovine insulin acetoacetylated at A1, B1 and B29 | – | – | 17 | 77 |
